From patent US4605660A, “Indeno[2,1-c]pyridine compounds, and their use as calcium channel blockers” (Merck & Co., Inc., priority 1985, dated 1986)

Tested on: Rat Aorta
Assay: Inhibition of calcium chloride-induced contraction of depolarized rat aorta (vascular smooth muscle segments in tissue bath)
Format: cell-based, male Sprague-Dawley rats
Details: contraction induced by 1.0 mM calcium chloride; for inhibition at 10 µM / inhibition at 1 µM: Rattus norvegicus, read-out: Percent Inhibition of Contraction of Rat Aorta; for inhibition at 10 µM: at 10^-5 M
Experimental: The property may be observed in a test in which segments of vascular smooth muscle obtained from male Sprague-Dawley rats are suspended in physiological salt solution in a tissue bath instrumented for recording contractions. After the tissue has been equilibrated, washed in calcium-free physiological salt solution and then depolarized, 1.0 mM calcium chloride is re-added to induce contraction. […] From measuring the initial contraction as well as the second contraction in the presence of the test compound, the extent of inhibition may be calculated.

Row | SMILES | inhibition at 10 µM | inhibition at 1 µM (at 10^-6 M) | further results
1 | CCOC(=O)C1=C(C)N[C@@](C)(C#N)[C@]2(C(=O)OCC)[C@@H](O)c3ccccc3[C@H]12 (relative stereo) [Compound IIIA-1, 4a(R,S),9a(S,R)-Diethyl 1-cyano-1,3-dimethyl-2,4a,9,9a-tetrahydro-9-hydroxy-9H-indeno[2,1-c]pyridine-4,9a-dicarboxylate] | 84% | – | –
2 | CCOC(=O)C1=C(C)N[C@@](C)(C#N)[C@]2(C(=O)OCC)[C@@H](OC(C)=O)c3ccccc3[C@H]12 (relative stereo) [Compound IVA-1, 4a(R,S),9a(S,R)-Diethyl 9-acetoxy-1-cyano-2,4a,9,9a-tetrahydro-1,3-dimethyl-9H-indeno[2,1-c]pyridine-4,9a-dicarboxylate] | 62% | – | –
3 | COC(=O)C1=C(C)N[C@@](C)(C#N)[C@]2(C(=O)OC)[C@@H](O)c3cc(OC)ccc3[C@H]12 (relative stereo) [Compound IIIA-2, 4a(R,S),9a(S,R)-Dimethyl 1-cyano-9-hydroxy-7-methoxy-2,4a,9,9a-tetrahydro-1,3-dimethyl-9H-indeno[2,1-c]pyridine-4,9a-dicarboxylate hydrate] | – | 4% | –
4 | CCOC(=O)C1=C(C)NC(C)(C#N)[C@]2(C(=O)OCC)C(O)c3ccccc3[C@H]12 (stereo partly drawn) [Compound IIIB-1, 4a(R,S),9a(S,R)-Diethyl 1-cyano-1,3-dimethyl-2,4a,9,9a-tetrahydro-9-hydroxy-9H-indeno[2,1-c]pyridine-4,9a-dicarboxylate] | – | – | Percent Inhibition of Contraction of Rat Aorta (at 10^-6 M): 52%
5 | CCOC(=O)C1=C(C)N[C@@](C)(C#N)[C@]2(C(=O)OCC)[C@H](Cl)c3ccccc3[C@H]12 (relative stereo) [Compound V-1, 4a(R,S),9a(S,R)-Diethyl 9-chloro-1-cyano-2,4a,9,9a-tetrahydro-1,3-dimethyl-9H-indeno[2,1-c]pyridine-4,9a-dicarboxylate] | 24% | – | –
6 | CCOC(=O)C1=C(C)N[C@](C)(C#N)[C@]2(C(=O)OCC)[C@@H](OC(C)=O)c3ccccc3[C@H]12 (relative stereo) [Compound IVB-1, 4a(R,S),9a(S,R)-Diethyl 9-acetoxy-1-cyano-2,4a,9,9a-tetrahydro-1,3-dimethyl-9H-indeno[2,1-c]pyridine-4,9a-dicarboxylate] | – | 6% | –
7 | COC(=O)C1=C(C)N[C@](C)(C#N)[C@]2(C(=O)OC)[C@@H](O)c3cc(OC)ccc3[C@H]12 (relative stereo) [Compound IIIB-2, 4a(R,S),9a(S,R)-Dimethyl 1-cyano-9-hydroxy-7-methoxy-2,4a,9,9a-tetrahydro-1,3-dimethyl-9H-indeno[2,1-c]pyridine-4,9a-dicarboxylate] | – | 2% | –
